This is an account of results in patent US8754234B2, “Chiral 2-(benzylsulfinyl)thiazole derivatives and 2-[(1H-pyrazol-4-ylmethyl)sulfinyl]thiazole derivatives, processes for their preparation and their use as herbicides and plant growth regulators” (Bayer Cropscience AG, priority 2007, dated 2014).

Type in all cases: in vivo
Experiment [1] concerns Brassica napus (winter rape). In words: Pre-emergence crop plant compatibility, winter rape. Conditions: after about 3 weeks. The text has this:
(§1) Seeds of monocotyledonous or dicotyledonous weed plants or crop plants are placed in sandy loam in wood-fiber pots and covered with soil. The compounds according to the invention, formulated in the form of wettable powders (WP), are then applied as aqueous suspension at a water application rate of 600 l/ha (converted) with the addition of 0.2% of wetting agent to the surface of the covering soil. After the treatment, the pots are placed in a greenhouse and kept under good growth conditions for the test plants. After about 3 weeks, the effect of the preparations is scored visually in comparison with untreated controls (herbicidal effect in percent (%): 100% activity=the plants have died, 0% activity=like control plants).

Experiment [2] deals with Alopecurus myosuroides (black-grass). Description: Pre-emergence herbicidal effect, black-grass. Conditions: after about 3 weeks.
Excerpt: as §1

For experiment [3], the system named is Setaria viridis (green foxtail). Description: Pre-emergence herbicidal effect, green foxtail. Conditions: after about 3 weeks.
Excerpt: as §1

In experiment [4] the test system is Lolium multiflorum (Italian ryegrass). In words: Pre-emergence herbicidal effect, Italian ryegrass. Conditions: after about 3 weeks.
Excerpt: as §1

Experiment [5] concerns Avena fatua, Stellaria media, Echinochloa crus galli, Lolium multiflorum, Setaria viridis, Abutilon theophrasti, Amaranthus retroflexus, Viola tricolor …. In words: Pre-emergence herbicidal effect, harmful plants. Conditions: pre-emergence method, application rate of 0.32 kg and less of active substance per hectare.
Excerpt: as §1

Experiment [6] relates to Avena fatua, Echinochloa crus galli, Lolium multiflorum, Setaria viridis and Alopecurus myosuroides. In words: Post-emergence herbicidal effect, harmful plants. Conditions: post-emergence method, application rate of 0.32 kg and less of active substance per hectare. Here is the method:
Seeds of monocotyledonous and dicotyledonous weed and crop plants are placed in sandy loam in wood fibre pots, covered with soil and cultivated in a greenhouse under good growth conditions. 2 to 3 weeks after sowing, the test plants are treated at the one-leaf stage. The compounds according to the invention, formulated in the form of wettable powders (WP), are then applied as aqueous suspension at a water application rate of 600 l/ha (converted) with the addition of 0.2% of wetting agent to the green parts of the plants. After the test plants have been kept in the greenhouse under optimum growth conditions for about 3 weeks, the activity of the preparations is rated visually in comparison to untreated controls (herbicidal activity in percent (%): 100% activity=the plants have died, 0% activity=like control plants).

Experiment [7] relates to Viola tricolor (wild pansy). In words: Pre-emergence herbicidal effect, wild pansy. Conditions: after about 3 weeks.
Excerpt: as §1

Experiment [8] has as its system Triticum aestivum (summer wheat). In words: Pre-emergence crop plant compatibility, summer wheat. Conditions: scored visually after about 3 weeks.
Excerpt: as §1

The test system of experiment [9] is Echinochloa crus-galli (barnyard grass). Description: Pre-emergence herbicidal effect, barnyard grass. Conditions: after about 3 weeks.
Excerpt: as §1

The mark [10] stands for this setting: 20 g of active compound/ha, formula (Ib) table.
The mark [11] stands for this setting: 80 g of active compound/ha, formula (Ib) table.
Where [12] appears, read: 20 g of active compound/ha, formula (Ia) table.
Where [13] appears, read: 80 g of active compound/ha, formula (Ia) table.

`Cn1nc(C(F)(F)F)c(C[S+]([O-])c2ncc(Br)s2)c1OC(F)F` (racemic) [Racemate of 2637 (S config.) and 3725 (R config.), 5-bromo-2-({[5-(difluoromethoxy)-1-methyl-3-(trifluoromethyl)-1H-pyrazol-4-yl]methyl}sulfinyl)-1,3-thiazole]: the “herbicidal effect in percent, BRSNW” value in experiment [1] (20 g of active compound/ha) and in experiment [1] (80 g of active compound/ha) was 0% in each case. In addition, the figures for the “herbicidal effect in percent, ALOMY” value in experiment [2] (20 g of active compound/ha) and in experiment [2] (80 g of active compound/ha) were 30% and 90%, respectively. The “herbicidal effect in percent, SETVI” value in experiment [3] (setting [10]) is 0%; in experiment [3] (setting [11]), 80%. Moreover, the “herbicidal effect in percent, LOLMU” value turned out to be 0% in experiment [4] (setting [10]) and 80% in experiment [4] (setting [11]).
Regarding `Cn1nc(C(F)(F)F)c(C[S@+]([O-])c2ncc(Br)s2)c1Cl` [Compound 2632, 5-Bromo-2-[(S)-{[5-chloro-1-methyl-3-(trifluoromethyl)-1H-pyrazol-4-yl]methyl}sulfinyl]-1,3-thiazole], the “herbicidal activity against harmful plants” value (“herbicidal activity” below) in experiment [5] and in [6] was “very good herbicidal activity” in each case.
With `[O-][S@+](Cc1c(Cl)cccc1Cl)c1ncc(Cl)s1` [Compound 1375], the “herbicidal activity” value in [5] and in experiment [6] was “very good herbicidal activity” throughout. In addition, the “herbicidal effect in percent, VIOTR” value in experiment [7] (20 g of active compound/ha) is recorded as 60%; in [7] (80 g of active compound/ha), 80%. The “herbicidal effect in percent, SETVI” value came out at 0% in [3] (setting [12]) and 20% in experiment [3] (setting [13]). The “herbicidal effect in percent, TRZAS” value in experiment [8] (20 g of active compound/ha) and in experiment [8] (80 g of active compound/ha) was 0% in each case. Moreover, the “herbicidal effect in percent, ECHCG” value came to 0% in [9] (20 g of active compound/ha) and 80% in [9] (80 g of active compound/ha). Also, the “herbicidal effect in percent, LOLMU” value was 0% in experiment [4] (setting [12]) and 60% in experiment [4] (setting [13]).
For the compound `[O-][S@@+](Cc1c(Cl)cccc1Cl)c1ncc(Br)s1` [Compound 270], the “herbicidal activity” value in experiment [5] and in [6] was “very good herbicidal activity” each time.
For the compound `Cn1nc(C(F)(F)F)c(C[S@@+]([O-])c2ncc(Cl)s2)c1OC(F)F` [Compound 3643], the “herbicidal activity” value in [5] and in experiment [6] was “very good herbicidal activity” throughout.
In the case of `[O-][S@@+](Cc1c(Cl)cccc1Cl)c1ncc(Cl)s1` [Compound 185], the “herbicidal activity” value in experiment [5] and in experiment [6] was “very good herbicidal activity” in each case. For the same compound, the “herbicidal effect in percent, VIOTR” value in experiment [7] (20 g of active compound/ha) is 60%; in experiment [7] (80 g of active compound/ha), 70%. In addition, the “herbicidal effect in percent, SETVI” value in experiment [3] (setting [12]) is listed as 70%; in experiment [3] (setting [13]) it was 100%. In addition, the “herbicidal effect in percent, TRZAS” value was 0% in [8] (20 g of active compound/ha) and 10% in experiment [8] (80 g of active compound/ha). Further, the “herbicidal effect in percent, ECHCG” value amounted to 90% in [9] (20 g of active compound/ha) and 100% in experiment [9] (80 g of active compound/ha). For the same compound, the “herbicidal effect in percent, LOLMU” value is listed as 70% in [4] (setting [12]) and 90% in experiment [4] (setting [13]).
For `Cn1nc(C(F)(F)F)c(C[S@@+]([O-])c2ncc(Br)s2)c1Cl` [Compound 3720, 5-bromo-2-[(R)-{[5-chloro-1-methyl-3-(trifluoromethyl)-1H-pyrazol-4-yl]methyl}sulfinyl]-1,3-thiazole], the “herbicidal activity” value in [5] and in experiment [6] was “very good herbicidal activity” in each case.
Consider `Cn1nc(C(F)(F)F)c(C[S@+]([O-])c2ncc(I)s2)c1OC(F)F` [Compound 2719], for which the “herbicidal activity” value in [5] and in experiment [6] was “very good herbicidal activity” throughout.
Take `[O-][S@+](Cc1c(Cl)cccc1Cl)c1ncc(Br)s1` [Compound 1460]: in experiment [5], the “herbicidal activity” value was “very good herbicidal activity”.
Regarding `Cn1nc(C(F)(F)F)c(C[S@+]([O-])c2ncc(Br)s2)c1OC(F)F` [Compound 2637, 5-Bromo-2-[(S)-{[5-(difluoromethoxy)-1-methyl-3-(trifluoromethyl)-1H-pyrazol-4-yl]methyl}sulfinyl]-1,3-thiazole], the “herbicidal activity” value in experiment [5] and in experiment [6] was “very good herbicidal activity” throughout. The “herbicidal effect in percent, BRSNW” value in [1] (20 g of active compound/ha) and in [1] (80 g of active compound/ha) was 0% in each case. For the same compound, the results for the “herbicidal effect in percent, ALOMY” value in [2] (20 g of active compound/ha) and in experiment [2] (80 g of active compound/ha) were 60% and 90%, respectively. Besides, the entries for the “herbicidal effect in percent, SETVI” value in experiment [3] (setting [10]) and in experiment [3] (setting [11]) were 80% and 90%, respectively. Besides, the entries for the “herbicidal effect in percent, LOLMU” value in [4] (setting [10]) and in experiment [4] (setting [11]) were 10% and 100%, respectively.
On to `Cn1nc(C(F)(F)F)c(C[S@@+]([O-])c2ncc(Br)s2)c1OC(F)F` [Compound 3725, 5-bromo-2-[(R)-{[5-(difluoromethoxy)-1-methyl-3-(trifluoromethyl)-1H-pyrazol-4-yl]methyl}sulfinyl]-1,3-thiazole], for which the “herbicidal activity” value in experiment [5] and in experiment [6] was “very good herbicidal activity” throughout. Further, the “herbicidal effect in percent, BRSNW” value in experiment [1] (20 g of active compound/ha) and in experiment [1] (80 g of active compound/ha) was 0% each time. Also, the results for the “herbicidal effect in percent, ALOMY” value in [2] (20 g of active compound/ha) and in experiment [2] (80 g of active compound/ha) were 0% and 20%, respectively. For the same compound, the “herbicidal effect in percent, SETVI” value in experiment [3] (setting [10]) and in [3] (setting [11]) was 0% each time. The “herbicidal effect in percent, LOLMU” value in [4] (setting [10]) and in experiment [4] (setting [11]) was 0% each time.
In the case of `Cn1nc(C(F)(F)F)c(C[S@+]([O-])c2ncc(Cl)s2)c1OC(F)F` [Compound 2555], the “herbicidal activity” value in experiment [5] and in [6] was “very good herbicidal activity” throughout.
With `[O-][S@+](Cc1c(F)cccc1F)c1ncc(Br)s1` [Compound 1449, 5-bromo-2-[(R)-(2,6-difluorobenzyl)sulfinyl]-1,3-thiazole], the “herbicidal activity” value in [5] and in [6] was “very good herbicidal activity” in each case.
Take `[O-][S@@+](Cc1c(F)cccc1F)c1ncc(Br)s1` [Compound 259, 5-Bromo-2-[(S)-(2,6-difluorobenzyl)sulfinyl]-1,3-thiazole]: the “herbicidal activity” value in [5] and in experiment [6] was “very good herbicidal activity” throughout.
